Eight compounds from BindingDB's records for doi:10.1016/s0960-894x(03)00789-3 (Wyeth Research, 2003) can be followed below.

Molecules are shown by their SMILES.

The target in the test is Human cytomegalovirus protease (assemblin, UL80). The experiment in a line: In vitro inhibitory activity against HCMV (human cytomegalovirus) protease using scintillation proximity assay. A general note: In a scintillation proximity assay essentially only radioactivity close to the scintillant gives light.
`Cc1nc2nnc(C(c3ccccc3)c3ccccc3)nn2c(=O)c1C` [3-Benzhydryl-7,8-dimethyl-pyrimido[1,2-b][1,2,4,5]tetrazin-6-one]: the IC50 (commonly the point on the concentration scale where inhibition reaches its midpoint) was found to be 1700 nM.

In turn, `Cc1nnc2nc(C)c(C)c(=O)n2n1` [3,7,8-Trimethyl-pyrimido[1,2-b][1,2,4,5]tetrazin-6-one] displayed an IC50 of 300 nM.

Consider `COc1ccc(-c2nnc3nc(C)c(C)c(=O)n3n2)cc1` [3-(4-Methoxy-phenyl)-7,8-dimethyl-pyrimido[1,2-b][1,2,4,5]tetrazin-6-one], for which the concentration for half-maximal inhibition (IC50) was 500 nM.

Regarding `Cc1nc2nnc(-c3ccc([N+](=O)[O-])cc3)nn2c(=O)c1C` [7,8-Dimethyl-3-(4-nitro-phenyl)-pyrimido[1,2-b][1,2,4,5]tetrazin-6-one], inhibition was half-maximal at 1700 nM (IC50).

Take `Cc1nc2nnc(-c3ccccc3)nn2c(=O)c1C` [7,8-Dimethyl-3-phenyl-pyrimido[1,2-b][1,2,4,5]tetrazin-6-one]: the half-inhibitory concentration (IC50) was found to be 400 nM.

Compound `Cc1ccc(-c2nnc3nc(C)c(C)c(=O)n3n2)cc1` [7,8-Dimethyl-3-p-tolyl-pyrimido[1,2-b][1,2,4,5]tetrazin-6-one] yielded a half-maximal inhibitory concentration (IC50) of 300 nM.

Compound `Cc1nc2nnc(C(C)(C)C)nn2c(=O)c1C` [3-tert-Butyl-7,8-dimethyl-pyrimido[1,2-b][1,2,4,5]tetrazin-6-one] registered an IC50 of 600 nM.

On to `Cc1nc2nncnn2c(=O)c1C` [7,8-Dimethyl-pyrimido[1,2-b][1,2,4,5]tetrazin-6-one], for which the midpoint of inhibition, the IC50, lay at 100 nM.
